Laboratory results taken from US11214803B2, “Modulators of YAP1 expression” (Ionis Pharmaceuticals, Inc., priority 2019, dated 2022).
Strand notation (5' to 3'): a small letter for the sugar, then the base; units joined by * are phosphorothioate-linked, units joined directly phosphodiester-linked; [ ] holds rarer units or linkages, { } end groups; capitals alone tell only the bases. k = constrained ethyl (cEt); [5mC] = 5-methylcytosine; d = 2'-deoxy (DNA)

Tested on: Yap1 mRNA
Assay: Antisense inhibition of human Yap1 in A-431 cells by cEt gapmers, single dose (Example 2, RTS4814)
Type: cell-based
Conditions: Table 18; A-431 cells, 5,000 cells per well, free uptake, 2,000 nM modified oligonucleotide, approx. 48 hours; RTS4814; normalized to RIBOGREEN; Yap1 mRNA as percent of untreated control
Summary of the method: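 A-431 cells (5,000/well) took up 2,000 nM 3-10-3 cEt gapmer by free uptake for ~48 h. Yap1 mRNA was quantified by qRT-PCR with primer probe set RTS4814, normalized to RIBOGREEN total RNA, and reported as % of untreated control.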

Substance	YAP1 (% UTC)
1076228 (kA*kT*kT*dA*dA*d[5mC]*d[5mC]*dT*d[5mC]*dA*dG*dT*dG*kA*kG*k[5mC]; antisense) [Compound 1076228]	69
1076260 (k[5mC]*kT*kT*dA*dA*dT*dT*dT*dA*dA*d[5mC]*dT*d[5mC]*k[5mC]*kT*kG; antisense) [Compound 1076260]	3
1076292 (kT*kA*kT*dT*dA*dT*dT*dG*dA*dG*dT*dT*dA*kT*k[5mC]*k[5mC]; antisense) [Compound 1076292]	27
1076324 (kG*k[5mC]*kT*d[5mC]*dA*dA*dA*dA*dG*dG*dT*d[5mC]*dT*k[5mC]*kT*k[5mC]; antisense) [Compound 1076324]	13

Same assay, conditions: Table 19; A-431 cells, 5,000 cells per well, free uptake, 2,000 nM modified oligonucleotide, approx. 48 hours; RTS4814; normalized to RIBOGREEN; Yap1 mRNA as percent of untreated control

Substance	YAP1 (% UTC)
1076229 (kA*kA*kT*dT*dA*dA*d[5mC]*d[5mC]*dT*d[5mC]*dA*dG*dT*kG*kA*kG; antisense) [Compound 1076229]	91
1076261 (k[5mC]*k[5mC]*k[5mC]*d[5mC]*dA*dA*d[5mC]*dA*dA*dG*dT*dT*d[5mC]*k[5mC]*kT*kG; antisense) [Compound 1076261]	39
1076293 (kG*k[5mC]*kT*dT*dA*dT*dT*dA*dT*dT*dG*dA*dG*kT*kT*kA; antisense) [Compound 1076293]	3
1076325 (k[5mC]*kT*kA*dA*dT*dA*dA*dT*dG*dG*dA*dA*dG*kA*kG*kT; antisense) [Compound 1076325]	16

Same assay, conditions: Table 20; Yap1 mRNA, percent of untreated control; 3-10-3 cEt gapmers targeting SEQ ID NO.: 1 and 2

Substance	YAP1 (% UTC)
1076230 (kG*kA*kA*dT*dT*dA*dA*d[5mC]*d[5mC]*dT*d[5mC]*dA*dG*kT*kG*kA; antisense) [Compound 1076230]	50
1076262 (kA*kG*kA*d[5mC]*dA*dA*dT*dA*dG*dT*d[5mC]*dT*dG*kG*kG*k[5mC]; antisense) [Compound 1076262]	41
1076294 (kT*kA*kT*dA*dT*dT*dA*dG*dT*dG*d[5mC]*d[5mC]*d[5mC]*k[5mC]*k[5mC]*kT; antisense) [Compound 1076294]	6
1076326 (kG*k[5mC]*kT*dA*dA*dT*dA*dA*dT*dG*dG*dA*dA*kG*kA*kG; antisense) [Compound 1076326]	4

Same assay, conditions: Table 21; Yap1 mRNA, percent of untreated control; 3-10-3 cEt gapmers targeting SEQ ID NO.: 1 and 2

Substance	YAP1 (% UTC)
1076231 (kT*kT*kA*dG*dA*dA*dA*dT*dG*dG*dA*d[5mC]*dT*kG*kG*kG; antisense) [Compound 1076231]	16
1076263 (kA*kA*kT*dA*dA*d[5mC]*d[5mC]*dA*dA*dG*dT*dG*dA*kG*kT*kT; antisense) [Compound 1076263]	21
1076295 (kG*kT*kA*dT*dA*dT*dT*dA*dG*dT*dG*d[5mC]*d[5mC]*k[5mC]*k[5mC]*k[5mC]; antisense) [Compound 1076295]	2
1076327 (kG*kA*kT*dA*dA*dG*d[5mC]*dA*dA*dG*dG*dT*dT*k[5mC]*kT*k[5mC]; antisense) [Compound 1076327]	7

Same assay, conditions: Table 22; Yap1 mRNA as percent of untreated control; 3-10-3 cEt gapmers; single dose

Substance	YAP1 (% UTC)
1076232 (kG*kT*kA*dA*dT*dA*d[5mC]*dA*d[5mC]*d[5mC]*dA*dT*dT*kT*kG*kG; antisense) [Compound 1076232]	15
1076264 (kA*k[5mC]*k[5mC]*d[5mC]*dA*dA*dT*dA*dA*d[5mC]*d[5mC]*dA*dA*kG*kT*kG; antisense) [Compound 1076264]	40
1076296 (kT*kA*kT*dA*dA*dA*dG*dA*d[5mC]*d[5mC]*d[5mC]*dA*dA*kT*kG*k[5mC]; antisense) [Compound 1076296]	68
1076328 (kA*k[5mC]*kT*dG*dA*dA*d[5mC]*d[5mC]*dG*d[5mC]*dT*dG*d[5mC]*k[5mC]*kT*k[5mC]; antisense) [Compound 1076328]	33

Same assay, conditions: Table 23; Yap1 mRNA as percent of untreated control; 3-10-3 cEt gapmers; single dose

Substance	YAP1 (% UTC)
1076233 (k[5mC]*k[5mC]*kA*dA*dT*dA*dA*dA*dG*d[5mC]*dA*dA*dG*kT*kA*kG; antisense) [Compound 1076233]	13
1076265 (kT*kA*kT*dT*dA*d[5mC]*d[5mC]*d[5mC]*dA*dA*dT*dA*dA*k[5mC]*k[5mC]*kA; antisense) [Compound 1076265]	9
1076297 (kT*kT*kA*dT*dA*dA*dA*dG*dA*d[5mC]*d[5mC]*d[5mC]*dA*kA*kT*kG; antisense) [Compound 1076297]	52
1076329 (kA*kA*kT*dT*dA*dT*dA*d[5mC]*dT*dG*dG*d[5mC]*dT*kA*k[5mC]*kT; antisense) [Compound 1076329]	14

Same assay, conditions: Table 24; Yap1 mRNA as percent of untreated control; 3-10-3 cEt gapmers targeting SEQ ID NO.: 1, and 2

Substance	YAP1 (% UTC)
1076234 (k[5mC]*k[5mC]*kT*dT*dA*dA*dT*dA*dT*dA*dT*d[5mC]*d[5mC]*kA*k[5mC]*kA; antisense) [Compound 1076234]	24
1076266 (kA*kT*kT*dA*dT*dT*dA*d[5mC]*d[5mC]*d[5mC]*dA*dA*dT*kA*kA*k[5mC]; antisense) [Compound 1076266]	72
1076298 (kG*kT*kT*dA*dT*dA*dA*dA*dG*dA*d[5mC]*d[5mC]*d[5mC]*kA*kA*kT; antisense) [Compound 1076298]	10
1076330 (kG*kA*kA*dT*dT*dA*dT*dA*d[5mC]*dT*dG*dG*d[5mC]*kT*kA*k[5mC]; antisense) [Compound 1076330]	3

Same assay, conditions: Table 25; Yap1 mRNA as percent of untreated control; 3-10-3 cEt gapmers targeting SEQ ID NO.: 1, and 2

Substance	YAP1 (% UTC)
1076235 (kT*k[5mC]*kA*dA*dA*dA*dT*dA*dA*dT*d[5mC]*dA*dG*k[5mC]*k[5mC]*k[5mC]; antisense) [Compound 1076235]	34
1076267 (kA*kT*kT*dT*dA*dA*dG*dG*dT*dG*d[5mC]*dA*dT*kA*kA*kG; antisense) [Compound 1076267]	13
1076299 (k[5mC]*kG*kT*dT*dA*dT*dA*dA*dA*dG*dA*d[5mC]*d[5mC]*k[5mC]*kA*kA; antisense) [Compound 1076299]	3
1076331 (k[5mC]*kA*kT*dT*dA*dT*dT*d[5mC]*dA*dG*dT*dA*dG*kT*kT*kG; antisense) [Compound 1076331]	71

Same assay, conditions: Table 32; Yap1 mRNA, percent of untreated control; 3-10-3 cEt gapmers targeting SEQ ID NO.: 1, and 2

Substance	YAP1 (% UTC)
1076242 (kA*kT*kG*d[5mC]*dA*dA*dT*dA*dA*dG*dG*dA*dA*k[5mC]*kA*kG; antisense) [compound 1076242]	33
1076274 (kT*kG*kA*dG*dA*dA*dT*dA*dG*dA*dG*d[5mC]*dA*kG*kG*kT; antisense) [compound 1076274]	9
1076306 (k[5mC]*kT*kT*dT*dA*d[5mC]*dT*dA*d[5mC]*dT*dA*dA*dT*kA*kA*kG; antisense) [compound 1076306]	99

Same assay, conditions: Table 33; Yap1 mRNA, percent of untreated control; 3-10-3 cEt gapmers targeting SEQ ID NO.: 1, and 2

Substance	YAP1 (% UTC)
1076211 (kA*kA*kT*dT*dT*dA*dT*dA*dT*dG*d[5mC]*dT*d[5mC]*k[5mC]*k[5mC]*kT; antisense) [compound 1076211]	22
1076243 (kA*kT*kA*dT*dT*d[5mC]*dG*dA*dT*dG*dT*dA*dA*k[5mC]*kT*kT; antisense) [compound 1076243]	41
1076275 (kG*kT*kA*dT*dT*dA*dG*dA*dT*dA*dA*dA*dG*k[5mC]*kA*kG; antisense) [compound 1076275]	10
1076307 (kG*kT*kA*dA*dT*dT*dA*d[5mC]*d[5mC]*dT*d[5mC]*dT*dA*kA*kT*k[5mC]; antisense) [compound 1076307]	38

Same assay, conditions: Yap1 mRNA as percent of untreated control; A-431 cells; 3-10-3 cEt gapmers targeting SEQ ID NO.: 1, and 2; Table 30

Substance	YAP1 (% UTC)
1076240 (kA*kT*kT*dA*dA*dA*dA*dG*d[5mC]*dA*dA*dG*dG*kT*kG*k[5mC]; antisense) [compound 1076240]	56
1076272 (kT*kT*kA*dG*dA*dA*d[5mC]*dA*dA*d[5mC]*dT*dA*d[5mC]*kT*kA*k[5mC]; antisense) [compound 1076272]	53
1076304 (kA*k[5mC]*kT*dA*dA*dT*dA*dA*dG*d[5mC]*d[5mC]*dT*d[5mC]*kA*k[5mC]*k[5mC]; antisense) [compound 1076304]	30

Same assay, conditions: Yap1 mRNA as percent of untreated control; A-431 cells; 3-10-3 cEt gapmers targeting SEQ ID NO.: 1, and 2; Table 31

Substance	YAP1 (% UTC)
1076241 (k[5mC]*kA*kA*dT*dA*dA*dG*dG*dA*dA*d[5mC]*dA*dG*kT*kT*kT; antisense) [compound 1076241]	42
1076273 (kA*kA*kA*d[5mC]*dA*dA*dA*dA*dT*dG*dG*d[5mC]*dG*kA*kA*kT; antisense) [compound 1076273]	84
1076305 (kT*kA*k[5mC]*dT*dA*dA*dT*dA*dA*dG*d[5mC]*d[5mC]*dT*k[5mC]*kA*k[5mC]; antisense) [compound 1076305]	37
